Measurements published in US20210292807A1, “METHOD FOR TESTING ANTIMICROBIAL SUSCEPTIBILITY” (priority 2017, published 2021).
Several values for one entry are separate records, joined by “and”; a condition that tells them apart may be missing. Equal entries are not always repeated.

Tested on: Klebsiella isolates
Experiment: Broth microdilution MIC (MICBMD) of Klebsiella isolates
Format: cell-based, Klebsiella pneumoniae, Klebsiella oxytoca
Protocol: An aliquot of bacterial suspension was added to 50 mL centrifuge tubes (Corning, N.Y.) containing 9 mL of pre-warmed (37° C.) filtered MHB to produce a final density of 5×10^5-1×10^6 bacteria per mL. This suspension was incubated at 37° C. with shaking at 100 RPM for 30 minutes to obtain an actively dividing culture. An aliquot of antibiotic working solution from the previously described dilution series (appropriate to the concentration tested) was then added to each tube before a further 30-minute incubation with shaking, during which time a microbroth dilution (MBD) plate was prepared for overnight incubation at 37° C. as previously described in Clinical and Laboratory Standards Institute (2015) Performance Standards for Antimicrobial Susceptibility Testing: Informational Supplement. CLSI document M100-S25. Clinical and Laboratory Standards Institute, 950, West Valley Road, Suite 2500, Wayne, Pa., 19087, USA.
FIG. 2 outlines the work flow as exemplified herein. In brief, an isolate was retrieved from cryopreservation, plated onto blood agar to ensure purity, and inoculated into trypticase soy broth (TSB, described above) overnight to simulate biological fluids. A 1 mL aliquot of this overnight suspension was inoculated into Mueller-Hinton broth (MHB) [comprising about 300.0 g beef extract (dehydrated infusion from), about 17.5 g casein hydrolysate, about 1.5 g starch, reconstituted in about 1 L of water, pH 7.3±0.1 as measured and kept at 25° C.] and incubated at 37° C. to ensure bacteria were actively dividing. One aliquot was subjected to traditional microbroth dilution (MBD) susceptibility testing.

[1] = K. pneumoniae isolate 18397, biological replicates
[2] = K. pneumoniae isolate 43292, biological replicates
[3] = K. pneumoniae isolate 43358, biological replicates
[4] = K. pneumoniae isolate 44271, biological replicates
[5] = K. pneumoniae isolate ATCC 700603, biological replicates
[6] = K. pneumoniae isolate ATCC BAA1705, biological replicates
[7] = K. pneumoniae isolate K1, biological replicates
[8] = K. pneumoniae isolate K14, biological replicates
[9] = isolate 3000770, England, NDM-1
[10] = isolate 3040820, England, pAmpC
[11] = isolate ATCC BAA 1705, USA, KPC
[12] = isolate K16, Australia, IMP - 4
[13] = isolate K23, Australia, IMP - 4
[14] = isolate KS1, Sri Lanka, OXA-181
[15] = isolate KS17, Sri Lanka, OXA-181

## C[C@@H](O)[C@H]1C(=O)N2C(C(=O)O)=C(S[C@@H]3CN[C@H](C(=O)N(C)C)C3)[C@H](C)[C@H]12 [meropenem]
K. pneumoniae ATCC 700603 (carbapenem susceptible control), limited clinical screen concentrations
  MICBMD: ≤0.25
K. pneumoniae ATCC BAA1705 (carbapenem resistant control), limited clinical screen concentrations
  MICBMD: >16
[1]
  BMD S/NS: S (S: MIC ≤2 mg/L)
  MICBMD: ≤0.25 mg/L
[2]
  BMD S/NS: S (S: MIC ≤2 mg/L)
  MICBMD: ≤0.25 mg/L
[3]
  BMD S/NS: S (S: MIC ≤2 mg/L)
  MICBMD: ≤0.25 mg/L
[4]
  BMD S/NS: S (S: MIC ≤2 mg/L)
  MICBMD: 0.5 mg/L
[5]
  BMD S/NS: S (S: MIC ≤2 mg/L)
  MICBMD: ≤0.25 mg/L
[6]
  BMD S/NS: NS (NS: MIC >2 mg/L)
  MICBMD: 16 mg/L
[7]
  BMD S/NS: NS (NS: MIC >2 mg/L)
  MICBMD: 32 mg/L (2×) and 64 mg/L
[8]
  BMD S/NS: NS (NS: MIC >2 mg/L)
  MICBMD: 256 mg/L
K. pneumoniae isolate KS1, biological replicates
  MICBMD: 4 mg/L and 2 mg/L (2×)
K. pneumoniae isolate KS11, biological replicates
  MICBMD: 2 mg/L and 4 mg/L (2×)
Isolate 194, Sweden, VIM
  MBD S/NS: NS (NS = MIC >2 mg/L)
  MICBMD: 64 mg/L
Isolate 374, Sweden, VIM
  MBD S/NS: NS (NS = MIC >2 mg/L)
  MICBMD: 8 mg/L
Isolate 3354, Australia
  MBD S/NS: S (S = MIC ≤2 mg/L)
  MICBMD: ≤0.25 mg/L
Isolate 10924, Sweden, KPC
  MBD S/NS: S (S = MIC ≤2 mg/L)
  MICBMD: ≤0.25 mg/L
Isolate 18397, Australia
  MBD S/NS: S (S = MIC ≤2 mg/L)
  MICBMD: ≤0.25 mg/L
Isolate 43288, Australia
  MBD S/NS: S (S = MIC ≤2 mg/L)
  MICBMD: ≤0.25 mg/L
Isolate 43292, Australia
  MBD S/NS: S (S = MIC ≤2 mg/L)
  MICBMD: ≤0.25 mg/L
Isolate 43358, Australia
  MBD S/NS: S (S = MIC ≤2 mg/L)
  MICBMD: ≤0.25 mg/L
Isolate 43854, Australia
  MBD S/NS: S (S = MIC ≤2 mg/L)
  MICBMD: ≤0.25 mg/L
Isolate 44271, Australia
  MBD S/NS: S (S = MIC ≤2 mg/L)
  MICBMD: 0.5 mg/L
Isolate 51575, Sweden, ESBL
  MBD S/NS: S (S = MIC ≤2 mg/L)
  MICBMD: ≤0.25 mg/L
Isolate 70708, Sweden, KPC
  MBD S/NS: NS (NS = MIC >2 mg/L)
  MICBMD: 32 mg/L
Isolate 71076, Sweden, KPC
  MBD S/NS: NS (NS = MIC >2 mg/L)
  MICBMD: 32 mg/L
Isolate 200822, Sweden, KPC
  MBD S/NS: NS (NS = MIC >2 mg/L)
  MICBMD: 16 mg/L
Isolate 270902, England
  MBD S/NS: S (S = MIC ≤2 mg/L)
  MICBMD: 0.5 mg/L
Isolate 500638, Sweden, pAmpC
  MBD S/NS: NS (NS = MIC >2 mg/L)
  MICBMD: 4 mg/L
Isolate 515870, Sweden, ESBL
  MBD S/NS: S (S = MIC ≤2 mg/L)
  MICBMD: ≤0.25 mg/L
Isolate 2440606, England
  MBD S/NS: S (S = MIC ≤2 mg/L)
  MICBMD: ≤0.25 mg/L
Isolate 2880622, England
  MBD S/NS: S (S = MIC ≤2 mg/L)
  MICBMD: ≤0.25 mg/L
Isolate 2880654, England, KPC
  MBD S/NS: NS (NS = MIC >2 mg/L)
  MICBMD: 64 mg/L
Isolate 2890369, England
  MBD S/NS: S (S = MIC ≤2 mg/L)
  MICBMD: ≤0.25 mg/L
Isolate 2980639, England
  MBD S/NS: S (S = MIC ≤2 mg/L)
  MICBMD: ≤0.25 mg/L
[9]
  MBD S/NS: NS (NS = MIC >2 mg/L)
  MICBMD: 32 mg/L
[10]
  MBD S/NS: S (S = MIC ≤2 mg/L)
  MICBMD: 0.5 mg/L
Isolate 3080800, England, KPC
  MBD S/NS: NS (NS = MIC >2 mg/L)
  MICBMD: 256 mg/L
Isolate A1, Norway
  MBD S/NS: S (S = MIC ≤2 mg/L)
  MICBMD: ≤0.25 mg/L
Isolate A2, Norway
  MBD S/NS: S (S = MIC ≤2 mg/L)
  MICBMD: ≤0.25 mg/L
Isolate A3, Norway
  MBD S/NS: S (S = MIC ≤2 mg/L)
  MICBMD: ≤0.25 mg/L
Isolate A4, Norway
  MBD S/NS: S (S = MIC ≤2 mg/L)
  MICBMD: ≤0.25 mg/L
Isolate A7, Norway
  MBD S/NS: S (S = MIC ≤2 mg/L)
  MICBMD: ≤0.25 mg/L
Isolate A13, Norway
  MBD S/NS: S (S = MIC ≤2 mg/L)
  MICBMD: ≤0.25 mg/L
Isolate A15, Norway
  MBD S/NS: S (S = MIC ≤2 mg/L)
  MICBMD: ≤0.25 mg/L
Isolate A16, Norway
  MBD S/NS: S (S = MIC ≤2 mg/L)
  MICBMD: ≤0.25 mg/L
Isolate A20, Norway, NDM-1
  MBD S/NS: NS (NS = MIC >2 mg/L)
  MICBMD: 16 mg/L
Isolate ATCC 700603, USA
  MBD S/NS: S (S = MIC ≤2 mg/L)
  MICBMD: ≤0.25 mg/L
[11]
  MBD S/NS: NS (NS = MIC >2 mg/L)
  MICBMD: 16 mg/L
Isolate ATCC BAA 1706, USA
  MBD S/NS: S (S = MIC ≤2 mg/L)
  MICBMD: ≤0.25 mg/L
Isolate K1, Australia, OXA-181
  MBD S/NS: NS (NS = MIC >2 mg/L)
  MICBMD: 64 mg/L
Isolate K2, Australia, OXA-181
  MBD S/NS: NS (NS = MIC >2 mg/L)
  MICBMD: 32 mg/L
Isolate K8, Australia, NDM-1
  MBD S/NS: NS (NS = MIC >2 mg/L)
  MICBMD: >256 mg/L
Isolate K14, Australia, KPC
  MBD S/NS: NS (NS = MIC >2 mg/L)
  MICBMD: >256 mg/L
[12]
  MBD S/NS: NS (NS = MIC >2 mg/L)
  MICBMD: 16 mg/L
[13]
  MBD S/NS: S (S = MIC ≤2 mg/L)
  MICBMD: 2 mg/L
[14]
  MBD S/NS: NS (NS = MIC >2 mg/L)
  MICBMD: 4 mg/L
Isolate KS2, Sri Lanka, OXA-181
  MBD S/NS: NS (NS = MIC >2 mg/L)
[15]
  MBD S/NS: NS (NS = MIC >2 mg/L)
  MICBMD: 64 mg/L
Isolate KS23, Sri Lanka, OXA-181
  MBD S/NS: NS (NS = MIC >2 mg/L)
Isolate N17, Sweden, NDM-1
  MBD S/NS: NS (NS = MIC >2 mg/L)
  MICBMD: 32 mg/L
